Results taken from article PMC9241695, “Selective Metal Chelation by a Thiosemicarbazone Derivative Interferes with Mitochondrial Respiration and Ribosome Biogenesis in Candida albicans” (Microbiology Spectrum, 2022).
In brackets after ≈: the same amount, converted by molar mass.

What was measured:
[1] = system: C. krusei CK1; test: Microbroth dilution MIC80; type: cell-based, Candida krusei; settings: Pichia kudriavzevii, CK1
Text: (§1) Compound library. The thiosemicarbazone derivatives Triapine and COTI-2 were purchased from Med Chem Express (MCE). The other 87 thiosemicarbazones used in this study were previously synthesized by our collaborators (1, 2). Their structures are shown in Table 1 and Table S1 to help the reader clearly understand the relationship between structure and activity.
(§2) Strains and culture conditions. Clinically derived C. albicans isolates, including G5, F5, and Gu5, were kindly provided by Professor Joachim Morschhäuser of the University of Würzburg. Other clinical C. albicans isolates were kindly donated by Professor Qingguo Qi of Shandong University and Qianfoshan Hospital of Shandong Province Other Candida strains were obtained from Jinan Central Hospital.
(§3) The zap1 mutant and its complemented strain were kindly provided by Professor Aaron P. Mitchell of Carnegie Mellon University (3). The C. neoformans strains used in this study was kindly donated by Professor Guojian Liao of Southwest University and A. fumigatus strain used in this study was provided by Professor Ling Lu of Nanjing Normal University. Before in vitro and in vivo experiments, all C. albicans strains were grown on YPD agar plates. After culturing at 30°C for 24 h, colonies of each strain were cultured in liquid YPD medium at 30°C with continuous shaking […]
(§4) Antifungal susceptibility testing. To determine in vitro antifungal activities, the microbroth dilution method was carried out in RPMI1640 medium according to the guidelines of the Clinical and Laboratory Standards Institute (4, 5). The initial concentration in RPMI1640 medium was 1 × 10^3 CFU/mL for the C. albicans and C. neoformans suspensions but 1 × 10^4 CFU/mL for A. fumigatus. The range of final drug concentrations was 0.0156–64 μg/mL. The plates were incubated at35°C for 24 […]
(§5) h (for C. albicans, C. krusei, C. tropicalis, C. parapsilosis) or 48 h (for C. neoformans, A. fumigatus). The MIC was determined based on visible growth inhibition compared with the control. All experiments were performed in duplicate. […]

[2] = system: C. albicans SC5314 cells; test: Intracellular ATP production; type: cell-based, Candida albicans; settings: 0.125 μg/mL, compared with control cells
Protocol: albicans SC5314 cells (1 × 10^6 cells/mL) were challenged with various doses of 19ak and incubated at 30°C for 6 h, followed by staining with 20 μM Rh123 for 30 min in the dark and detection by flow cytometry (Becton Dickinson, CA, USA).
Measurement of intracellular ATP production. To explore whether 19ak affects intracellular ATP content by damaging mitochondria, we treated C. albicans SC5314 cells (1 × 10^6 cells/mL) with different doses of 19ak. After lysing the cells in lysis buffer, ATP levels were measured with the ATP Assay Kit (Beyotime, Haimen, China) according to the manufacturer's instructions. Cellular protein concentrations were determined using a BCA Protein Assay Kit (Beyotime, Haimen, China). The intracellular ATP content was calculated by referring to a standard curve and normalized using the protein content of each sample for expression as nmol/mg […]
ROS production assay. […] The fluorescence intensity was then measured by flow cytometry, and the data were analyzed with Win MDI 2.9 software.
Influence of oxidant or antioxidant molecules on 19ak activity. […] The effects of NAC, Tu and DTT on the growth of 19ak treated fungal cells were measured using a time-growth curve. […] A microplate reader was used to measure the absorbance at600 nm, and the growth curves were plotted.

[3] = system: C. albicans SC5314; test: G. mellonella infection model; type: in vivo, Galleria mellonella; settings: 19ak 0.4 μg per larva, FLC 2 μg per larva
Protocol: The G. mellonella infection model was used to evaluate the in vivo activity of 19ak in terms of survival, fungal burden, and histological features. A total of 60 larvae of similar size were selected and randomly allocated to four groups. The last right foreleg of each larva was injected with 10 μL of C. albicans SC5314 suspension (2 × 10^7 CFU/mL). Two hours after infection, the larvae were injected with 10 μL of drug or vehicle as follows for the four groups: 19ak (0.4 μg per larva), FLC (2 μg per larva), control (PBS), and blank control (no injection with C. albicans but injections of sterile PBS twice). The data for the blank control are not shown because this group survived well during the experiment. Failure to respond to light contact with forceps was considered a sign of larval death. In the survival assay, the number of surviving larvae in each group was calculated at the same time every day for 4 days.
To determine fungal burden, larval infection and treatment were performed as described above with groups of 30 larvae each. Each day, five larvae were randomly selected from each group and homogenized with glass beads in 0.5 mL of sterile PBS. The homogenate was serially diluted with sterile PBS, and 5 μL was spread on a yeast-peptone-dextrose solid plate ([62]). Experiments were performed at least three times independently.
We also conducted histopathological studies to explore the therapeutic effects of the drugs on G. mellonella fungal infection. First, the groups of larvae were infected as described above. After 48 h, three larvae from each group were randomly selected and fixed in 4% paraformaldehyde for sectioning and Periodic acid-Schiff (PAS) staining. The tissue was observed and photographed under an Olympus microscope with 40 × magnification (IX71, Olympus, Tokyo, Japan). The experiments were performed independently a minimum of three times.

[4] = system: C. parapsilosis CP001; test: Microbroth dilution MIC80; type: cell-based, Candida parapsilosis; settings: Lodderomyces parapsilosis, CP001
Text: as §1, §2, §3, §4, §5

C/C(=N\NC(=S)N(C)C)c1ccccn1 [Compound 19ak]
MIC80 [1]: 0.125 µg/mL (≈ 0.562 µM)
Decrease of intracellular ATP levels [2]: approximately 65.8%
Histopathology of infected larvae ([3]; 48 h, PAS staining): fewer infected areas
Fungal burden of infected larvae ([3]; compared with the control group): greatly reduced the fungal burden
Survival rate of infected larvae ([3]; after 4 days of infection, 2 h after infection): 67%
MIC80 [4]: 0.125 µg/mL (≈ 0.562 µM)
